# Source: US20260062443A1 (ALEXION PHARMACEUTICALS, INC., priority 2022, published 2026)
# pIC50: −log10 of the molar value.
# Target: T1, Human complement C1s enzyme (Homo sapiens, UniProt P09871)
# T1 sequence (P09871 438-688 limits assumed): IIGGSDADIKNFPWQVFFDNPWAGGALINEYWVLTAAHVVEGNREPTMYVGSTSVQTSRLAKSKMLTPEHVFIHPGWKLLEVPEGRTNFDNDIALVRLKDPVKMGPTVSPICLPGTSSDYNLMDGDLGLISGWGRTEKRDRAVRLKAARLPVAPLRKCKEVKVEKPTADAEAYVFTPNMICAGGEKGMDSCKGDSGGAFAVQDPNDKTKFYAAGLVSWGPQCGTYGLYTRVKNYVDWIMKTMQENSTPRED
# T1 sequence (P09871 16-437 partner limits assumed): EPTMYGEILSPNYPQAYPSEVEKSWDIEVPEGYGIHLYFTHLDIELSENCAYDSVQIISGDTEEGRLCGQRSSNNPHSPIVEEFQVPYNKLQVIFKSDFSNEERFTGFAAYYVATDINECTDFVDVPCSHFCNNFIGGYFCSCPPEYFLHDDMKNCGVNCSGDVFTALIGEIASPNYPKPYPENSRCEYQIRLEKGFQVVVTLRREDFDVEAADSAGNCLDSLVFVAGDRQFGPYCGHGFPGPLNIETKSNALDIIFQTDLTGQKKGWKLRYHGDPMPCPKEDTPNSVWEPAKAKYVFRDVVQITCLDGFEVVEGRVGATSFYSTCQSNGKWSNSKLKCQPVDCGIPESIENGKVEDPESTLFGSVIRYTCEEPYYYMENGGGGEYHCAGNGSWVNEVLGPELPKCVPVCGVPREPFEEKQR
# Experiment: Human C1s enzyme assay
# Assay type: biochemical
# Settings: not given
# In short: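 IC50 from nonlinear regression of reaction rates versus compound concentration, with rates taken from A405 recorded at 30 s intervals over 30 min after adding 100 μM Z-L-Lys-SBzl plus 100 μM DTNB. Enzyme was human C1s purified from serum, 1.16 nM, given 5 min compound preincubation at room temperature, pH 7.5 Tris/1 M NaCl.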
row,Structure (SMILES),pIC50
1,"C[C@@H](NC(=O)[C@@H]1C[Si](C)(C)CN1C(=O)CNC(=O)c1ccc2c(c1)Oc1ccccc1S2)c1cc2cnccc2[nH]1 [Compound 168, (R)-N-((R)-1-(1H-pyrrolo[3,2-c]pyridin-2-yl)ethyl)-3,3-dimethyl-1-((phenoxathiine-3-carbonyl)glycyl)-1,3-azasilolidine-5-carboxamide]",> 7.00

# Same assay, conditions: human complement C1s enzyme 1.16 nM, substrate Z-L-Lys-SBzl 100 μM, 5 min preincubation; read-out: IC50 (Stars), C1s Inhibiting Activity
row,Structure (SMILES),pIC50
1,"C[C@@H](NC(=O)[C@@H]1C[C@]2(C)C[C@@H]2N1C(=O)CNC(=O)c1ccc(Oc2ccccc2)cc1)c1cc(B(O)O)cs1 [Compound 163, (5-((R)-1-((1S,3S,5S)-5-methyl-2-((4-phenoxybenzoyl)glycyl)-2-azabicyclo[3.1.0]hexane-3-carboxamido)ethyl)thiophen-3-yl)boronic acid]",< 6.00
2,"C[C@@H](NC(=O)[C@@H]1C[C@@H](S(=O)(=O)C2CC2)CN1C(=O)CNC(=O)c1ccc2c(c1)Oc1ccccc1S2)c1cc2cnccc2[nH]1 [Compound 174, (2S,4R)-N-((R)-1-(1H-pyrrolo[3,2-c]pyridin-2-yl)ethyl)-4-(cyclopropylsulfonyl)-1-((phenoxathiine-3-carbonyl)glycyl)pyrrolidine-2-carboxamide]",> 7.00
3,"COC[C@@]1(F)C[C@@H](C(=O)N[C@H](C)c2cc3cnccc3[nH]2)N(C(=O)CNC(=O)c2ccc(Oc3ccc(F)cc3)cc2)C1 [Compound 175, (2S,4R)-N-((R)-1-(1H-pyrrolo[3,2-c]pyridin-2-yl)ethyl)-4-fluoro-1-((4-(4-fluorophenoxy)benzoyl)glycyl)-4-(methoxymethyl)pyrrolidine-2-carboxamide]",> 7.00
4,"C[C@@H](NC(=O)[C@@H]1C[C@@H](C(F)(F)F)CN1C(=O)CNC(=O)c1ccc2c(c1)Oc1ccccc1S2)c1cc2cnccc2[nH]1 [Compound 176, (2S,4R)-N-((R)-1-(1H-pyrrolo[3,2-c]pyridin-2-yl)ethyl)-1-((phenoxathiine-3-carbonyl)glycyl)-4-(trifluoromethyl)pyrrolidine-2-carboxamide]",> 7.00
5,"C[C@@H](NC(=O)[C@@H]1C[C@@H](c2ncco2)CN1C(=O)CNC(=O)c1ccc2c(c1)Oc1ccccc1S2)c1cc2cnccc2[nH]1 [Compound 177, (2S,4R)-N-((R)-1-(1H-pyrrolo[3,2-c]pyridin-2-yl)ethyl)-4-(oxazol-2-yl)-1-((phenoxathiine-3-carbonyl)glycyl)pyrrolidine-2-carboxamide]",> 7.00
6,"C[C@@H](NC(=O)[C@@H]1C[C@H](c2ncco2)CN1C(=O)CNC(=O)c1ccc2c(c1)Oc1ccccc1S2)c1cc2cnccc2[nH]1 [Compound 178, (2S,4S)-N-((R)-1-(1H-pyrrolo[3,2-c]pyridin-2-yl)ethyl)-4-(oxazol-2-yl)-1-((phenoxathiine-3-carbonyl)glycyl)pyrrolidine-2-carboxamide]",> 7.00
7,"O=C(NCC(=O)N1CC2(C[C@H]1C(=O)NCc1cc3cnccc3[nH]1)OCCO2)c1ccc2c(c1)sc1ccccc12 [Compound 179, (S)-N-((1H-pyrrolo[3,2-c]pyridin-2-yl)methyl)-7-((dibenzo[b,d]thiophene-3-carbonyl)glycyl)-1,4-dioxa-7-azaspiro[4.4]nonane-8-carboxamide]",> 7.00
8,"C[C@@]12C[C@@H]1N(C(=O)CNC(=O)c1ccc3c(c1)Oc1ccccc1S3)[C@H](C(=O)NCc1ccc3nc(N)[nH]c3c1)C2 [Compound 181, (1S,3S,5S)-N-((2-amino-1H-benzo[d]imidazol-6-yl)methyl)-5-methyl-2-((phenoxathiine-3-carbonyl)glycyl)-2-azabicyclo[3.1.0]hexane-3-carboxamide]",> 7.00
9,"C[C@@H](NC(=O)[C@@H]1CC(Cn2ccnc2)CN1C(=O)CNC(=O)c1ccc2c(c1)Oc1ccccc1S2)c1cc2cnccc2[nH]1 (stereo partly drawn) [Compound 184, (2S)-4-((1H-imidazol-1-yl)methyl)-N-((R)-1-(1H-pyrrolo[3,2-c]pyridin-2-yl)ethyl)-1-((phenoxathiine-3-carbonyl)glycyl)pyrrolidine-2-carboxamide]",> 7.00

# The next lines start with the values.
row,pIC50,Structure (SMILES)
1,> 7.00,"C[C@@H](NC(=O)[C@@H]1C[C@](F)(CF)CN1C(=O)CNC(=O)c1ccc2c(c1)Oc1ccccc1S2)c1cc2cnccc2[nH]1 [Compound 164, (2S,4R)-N-((R)-1-(1H-pyrrolo[3,2-c]pyridin-2-yl)ethyl)-4-fluoro-4-(fluoromethyl)-1-((phenoxathiine-3-carbonyl)glycyl)pyrrolidine-2-carboxamide]"
2,> 7.00,"C[C@H]1C[C@@H](C(=O)N[C@H](C)c2cc3cnccc3[nH]2)N(C(=O)CNC(=O)c2ccc3c(c2)Oc2ccccc2S3)C1 [Compound 165, (2S,4S)-N-((R)-1-(1H-pyrrolo[3,2-c]pyridin-2-yl)ethyl)-4-methyl-1-((phenoxathiine-3-carbonyl)glycyl)pyrrolidine-2-carboxamide]"
3,> 7.00,"C[C@H]1C[C@@H](C(=O)N[C@H](C)c2cc3cnccc3[nH]2)N(C(=O)CNC(=O)c2ccc3c(c2)-c2ccccc2C3(F)F)C1 [Compound 166, (2S,4S)-N-((R)-1-(1H-pyrrolo[3,2-c]pyridin-2-yl)ethyl)-1-((9,9-difluoro-9H-fluorene-3-carbonyl)glycyl)-4-methylpyrrolidine-2-carboxamide]"
4,> 7.00,"C[C@@H](NC(=O)[C@@H]1C[C@@H](OC(F)F)CN1C(=O)CNC(=O)c1ccc2c(c1)C(F)(F)c1ccccc1-2)c1cc2cnccc2[nH]1 [Compound 167, (2S,4R)-N-((R)-1-(1H-pyrrolo[3,2-c]pyridin-2-yl)ethyl)-1-((9,9-difluoro-9H-fluorene-2-carbonyl)glycyl)-4-(difluoromethoxy)pyrrolidine-2-carboxamide]"
5,> 7.00,"C[C@@H](NC(=O)[C@@H]1C[C@@H](c2ccccc2)CN1C(=O)CNC(=O)c1ccc2c(c1)Oc1ccccc1S2)c1cc2cnccc2[nH]1 [Compound 169, (2S,4S)-N-((R)-1-(1H-pyrrolo[3,2-c]pyridin-2-yl)ethyl)-1-((phenoxathiine-3-carbonyl)glycyl)-4-phenylpyrrolidine-2-carboxamide]"
6,> 7.00,"C[C@@]12C[C@@H]1N(C(=O)CNC(=O)c1ccc3c(c1)Oc1ccccc1S3)[C@H](C(=O)NCc1cc3c(s1)CCNC3)C2 [Compound 170, (1S,3S,5S)-5-methyl-2-((phenoxathiine-3-carbonyl)glycyl)-N-((4,5,6,7-tetrahydrothieno[3,2-c]pyridin-2-yl)methyl)-2-azabicyclo[3.1.0]hexane-3-carboxamide]"
7,> 7.00,"C[C@@H](NC(=O)[C@@H]1C[C@]2(C)C[C@@H]2N1C(=O)CNC(=O)c1cccc(Oc2ccccc2)c1)c1cc2cnccc2[nH]1 [Compound 171, (1S,3S,5S)-N-((R)-1-(1H-pyrrolo[3,2-c]pyridin-2-yl)ethyl)-5-methyl-2-((3-phenoxybenzoyl)glycyl)-2-azabicyclo[3.1.0]hexane-3-carboxamide]"
8,> 7.00,"COC[C@@]1(F)C[C@@H](C(=O)N[C@H](C)c2cc3cnccc3[nH]2)N(C(=O)CNC(=O)c2ccc3c(c2)Oc2ccccc2S3)C1 [Compound 173, (2S,4R)-N-((R)-1-(1H-pyrrolo[3,2-c]pyridin-2-yl)ethyl)-4-fluoro-4-(methoxymethyl)-1-((phenoxathiine-3-carbonyl)glycyl)pyrrolidine-2-carboxamide]"
